Assay results taken from ChEMBL document CHEMBL1201862, “PubChem BioAssay data set” (2004).
Active and inactive are the calls of the source.

Tests used:
[1] = target: T1, Sentrin-specific protease 8 (Homo sapiens, UniProt Q96LD8); test: inhibition of human SENP8 cleavage activity – biochemical, luminescence, SAR follow-up (AID 504501); type: functional
T1 sequence (Q96LD8 whole entry): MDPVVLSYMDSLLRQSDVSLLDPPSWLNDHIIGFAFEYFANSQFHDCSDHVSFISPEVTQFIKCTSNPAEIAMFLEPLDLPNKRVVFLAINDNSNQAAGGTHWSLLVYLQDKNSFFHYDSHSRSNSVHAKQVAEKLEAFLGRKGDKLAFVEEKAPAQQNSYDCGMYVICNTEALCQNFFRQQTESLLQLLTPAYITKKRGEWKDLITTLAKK

Caspase-3 = target: T2, Caspase-3 (Homo sapiens, UniProt P42574); test: SAR Analysis of small molecule inhibitors of Sentrin-specific proteases (SENPs) using a Caspase-3 Selectivity assay. [Related pubchem assays (depositor defined):AID2540, AID2599, AID434973, AID489001]; type: functional
T2 sequence (P42574 whole entry): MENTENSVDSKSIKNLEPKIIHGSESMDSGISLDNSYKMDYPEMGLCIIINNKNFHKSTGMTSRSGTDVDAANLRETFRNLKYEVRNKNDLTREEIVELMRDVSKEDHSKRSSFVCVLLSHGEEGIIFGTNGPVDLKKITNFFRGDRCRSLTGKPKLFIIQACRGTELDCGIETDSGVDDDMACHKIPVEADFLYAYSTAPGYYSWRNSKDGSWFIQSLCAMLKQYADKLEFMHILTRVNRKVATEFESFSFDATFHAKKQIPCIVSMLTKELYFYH

[2] = target: T3, Sentrin-specific protease 6 (Homo sapiens, UniProt Q9GZR1); test: SAR Analysis of small molecule inhibitors of Sentrin-specific protease 6 (SENP6) using a Luminescent assay. [Related pubchem assays (depositor defined):AID2582, AID2599]; type: functional
T3 sequence (Q9GZR1 whole entry): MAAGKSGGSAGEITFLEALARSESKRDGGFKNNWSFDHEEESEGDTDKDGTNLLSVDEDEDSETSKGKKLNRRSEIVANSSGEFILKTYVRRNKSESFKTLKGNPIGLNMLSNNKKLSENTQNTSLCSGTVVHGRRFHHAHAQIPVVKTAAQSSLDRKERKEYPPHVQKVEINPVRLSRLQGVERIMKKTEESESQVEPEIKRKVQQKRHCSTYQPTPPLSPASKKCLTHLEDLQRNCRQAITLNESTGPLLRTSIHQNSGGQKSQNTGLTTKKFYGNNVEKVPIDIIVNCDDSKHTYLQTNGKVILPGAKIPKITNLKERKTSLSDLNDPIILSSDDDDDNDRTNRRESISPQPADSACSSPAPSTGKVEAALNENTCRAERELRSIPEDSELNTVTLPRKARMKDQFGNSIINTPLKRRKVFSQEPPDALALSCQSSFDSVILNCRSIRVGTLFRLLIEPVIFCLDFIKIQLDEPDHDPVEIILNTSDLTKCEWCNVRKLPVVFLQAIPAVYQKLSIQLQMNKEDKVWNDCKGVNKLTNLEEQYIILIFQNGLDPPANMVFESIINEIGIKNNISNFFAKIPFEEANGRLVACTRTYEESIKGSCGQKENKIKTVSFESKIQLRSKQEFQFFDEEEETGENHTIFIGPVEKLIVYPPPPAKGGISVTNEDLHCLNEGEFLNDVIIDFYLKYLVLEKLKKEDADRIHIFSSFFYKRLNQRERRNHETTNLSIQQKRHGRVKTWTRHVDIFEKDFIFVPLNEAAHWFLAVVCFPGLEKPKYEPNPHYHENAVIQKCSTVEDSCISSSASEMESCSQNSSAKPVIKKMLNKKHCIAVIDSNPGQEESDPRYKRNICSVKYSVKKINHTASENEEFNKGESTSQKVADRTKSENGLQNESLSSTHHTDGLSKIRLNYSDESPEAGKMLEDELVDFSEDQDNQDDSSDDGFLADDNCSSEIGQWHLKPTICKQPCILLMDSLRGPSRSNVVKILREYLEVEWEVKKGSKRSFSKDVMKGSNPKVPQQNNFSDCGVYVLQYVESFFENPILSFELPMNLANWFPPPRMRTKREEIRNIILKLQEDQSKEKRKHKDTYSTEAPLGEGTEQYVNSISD

[3] = target: T4, Sentrin-specific protease 7 (Homo sapiens, UniProt Q9BQF6); test: inhibition of human SENP7 cleavage activity – biochemical, luminescence, SAR follow-up (AID 504497); type: functional
T4 sequence (Q9BQF6 whole entry): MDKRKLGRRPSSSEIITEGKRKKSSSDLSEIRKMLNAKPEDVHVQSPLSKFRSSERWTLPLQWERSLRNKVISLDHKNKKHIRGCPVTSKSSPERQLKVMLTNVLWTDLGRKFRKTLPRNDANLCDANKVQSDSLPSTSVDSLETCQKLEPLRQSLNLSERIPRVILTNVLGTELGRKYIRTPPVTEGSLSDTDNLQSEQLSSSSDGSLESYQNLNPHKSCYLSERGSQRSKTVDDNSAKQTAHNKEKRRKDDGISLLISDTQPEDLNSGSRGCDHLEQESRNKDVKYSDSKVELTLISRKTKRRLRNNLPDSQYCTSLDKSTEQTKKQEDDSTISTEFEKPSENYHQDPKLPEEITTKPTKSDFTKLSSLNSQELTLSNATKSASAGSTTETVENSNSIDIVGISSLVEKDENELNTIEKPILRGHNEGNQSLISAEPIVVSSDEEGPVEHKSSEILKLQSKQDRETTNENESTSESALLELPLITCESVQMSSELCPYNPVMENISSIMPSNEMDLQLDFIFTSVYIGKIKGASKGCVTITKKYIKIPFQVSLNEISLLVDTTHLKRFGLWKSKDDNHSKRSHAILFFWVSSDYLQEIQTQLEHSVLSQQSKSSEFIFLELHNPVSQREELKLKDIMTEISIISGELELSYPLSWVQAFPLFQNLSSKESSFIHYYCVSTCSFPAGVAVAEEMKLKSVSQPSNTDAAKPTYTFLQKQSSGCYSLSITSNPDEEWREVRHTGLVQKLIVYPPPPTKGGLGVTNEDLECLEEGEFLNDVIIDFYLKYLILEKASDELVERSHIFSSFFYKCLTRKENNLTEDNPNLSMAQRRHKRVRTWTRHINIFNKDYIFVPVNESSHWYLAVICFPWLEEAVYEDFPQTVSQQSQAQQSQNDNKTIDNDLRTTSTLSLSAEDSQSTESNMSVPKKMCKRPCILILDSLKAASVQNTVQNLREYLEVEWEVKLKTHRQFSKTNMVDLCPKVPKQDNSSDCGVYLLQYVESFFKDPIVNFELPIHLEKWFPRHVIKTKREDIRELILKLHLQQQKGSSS

Insulin-degrading enzyme [4] = target: T5, Insulin-degrading enzyme (Homo sapiens, UniProt P14735); test: recombinant IDE activation, cell-free – biochemical, fluorescence polarization, counter-screen for IDE activator project, dose response (AID 588681)
T5 sequence (P14735 whole entry): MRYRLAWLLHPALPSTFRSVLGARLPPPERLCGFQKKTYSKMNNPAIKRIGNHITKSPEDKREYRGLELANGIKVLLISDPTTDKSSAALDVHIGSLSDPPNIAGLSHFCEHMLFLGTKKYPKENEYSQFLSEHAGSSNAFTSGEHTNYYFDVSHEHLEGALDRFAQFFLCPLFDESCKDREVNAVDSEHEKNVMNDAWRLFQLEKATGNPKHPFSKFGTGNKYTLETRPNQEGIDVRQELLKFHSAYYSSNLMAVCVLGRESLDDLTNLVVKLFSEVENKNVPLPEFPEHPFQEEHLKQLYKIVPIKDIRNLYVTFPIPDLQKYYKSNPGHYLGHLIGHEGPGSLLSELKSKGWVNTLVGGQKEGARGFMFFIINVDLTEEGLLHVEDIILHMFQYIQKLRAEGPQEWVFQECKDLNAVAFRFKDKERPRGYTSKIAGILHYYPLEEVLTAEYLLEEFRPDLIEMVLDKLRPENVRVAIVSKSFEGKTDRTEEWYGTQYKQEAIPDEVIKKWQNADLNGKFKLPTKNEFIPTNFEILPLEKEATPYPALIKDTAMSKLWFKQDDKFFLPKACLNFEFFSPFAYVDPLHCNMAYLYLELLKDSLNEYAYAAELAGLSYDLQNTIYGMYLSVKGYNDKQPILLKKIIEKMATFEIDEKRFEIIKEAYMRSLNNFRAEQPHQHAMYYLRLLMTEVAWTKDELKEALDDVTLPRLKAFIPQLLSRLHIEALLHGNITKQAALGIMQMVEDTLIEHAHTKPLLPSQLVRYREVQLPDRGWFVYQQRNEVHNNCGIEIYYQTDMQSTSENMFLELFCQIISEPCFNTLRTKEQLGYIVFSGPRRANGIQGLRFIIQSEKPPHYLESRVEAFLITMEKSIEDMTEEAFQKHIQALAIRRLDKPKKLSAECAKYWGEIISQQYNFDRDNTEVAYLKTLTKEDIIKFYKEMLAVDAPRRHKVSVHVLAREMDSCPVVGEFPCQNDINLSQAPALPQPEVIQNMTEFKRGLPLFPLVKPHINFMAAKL

Insulin-degrading enzyme [5] = target: T5, Insulin-degrading enzyme; test: cellular IDE activation of Abeta substrate cleavage – fluorescence polarization, HEK cells, dose response (AID 588439); type: functional, cell-based
HEK293 [6] = test: membrane integrity loss in HEK cells – cell-based, fluorescence, cytotoxicity control for IDE activator project, dose response (AID 588440); type: functional; details: Homo sapiens;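 further: cytotoxicity by LDH release measuring loss of membrane integrity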
HEK293 [7] = test: optical interference in Abeta FP readout, dose response, artefact control for IDE activator project, biochemical, fluorescence polarization (AID 588442); type: functional, cell-based; details: Homo sapiens

Fc1ccc(/C=C/c2noc(-c3ccc(C(F)(F)F)cc3F)n2)cc1
inactive: IC50 [1] > 99 µM | IC50 (Caspase-3) > 99 µM | IC50 [2] > 99 µM | IC50 [3] > 99 µM

CC(=O)N1CCC(=O)Nc2ccc([N+](=O)[O-])cc21
inactive: EC50 (Insulin-degrading enzyme [4]) > 54.7 µM | EC50 (Insulin-degrading enzyme [5]) > 54.7 µM | IC50 (HEK293 [6]) > 89.3 µM | EC50 (HEK293 [7]) > 54.7 µM

COc1ccccc1NS(=O)(=O)c1cccc(NC(=O)C2CC2)c1
inactive: EC50 (Insulin-degrading enzyme [4]) > 54.7 µM | EC50 (Insulin-degrading enzyme [5]) > 54.7 µM | IC50 (HEK293 [6]) > 89.2 µM | EC50 (HEK293 [7]) > 55.9 µM

CC(C)(CC(=O)Nc1scc(-c2ccc(Br)cc2)c1C(=O)O)CC(=O)Nc1scc(-c2ccc(Br)cc2)c1C(=O)O
inactive: IC50 [1] > 99 µM | IC50 (Caspase-3) > 99 µM | IC50 [2] > 99 µM | IC50 [3] > 99 µM

O=[N+]([O-])c1cccc(Cl)c1NCCNc1ncc(C(F)(F)F)cc1Cl
inactive: EC50 (Insulin-degrading enzyme [4]) > 54.7 µM | EC50 (Insulin-degrading enzyme [5]) > 54.7 µM | IC50 (HEK293 [6]) > 89.2 µM | EC50 (HEK293 [7]) > 54.7 µM
